The text below walks through data of patent publication US11472803B2, “7-substituted 1-aryl-naphthyridine-3-carboxylic acid amides and use thereof” (Bayer Aktiengesellschaft, priority 2016, dated 2022).

In assay [1] the target is T1, human M2 receptor (Homo sapiens, UniProt P08172).
T1 construct: expressed in transfected cells; host or cells: CHO-DUKX (CHO-DUKX-M2-GIRK)
T1 sequence (P08172 1-466): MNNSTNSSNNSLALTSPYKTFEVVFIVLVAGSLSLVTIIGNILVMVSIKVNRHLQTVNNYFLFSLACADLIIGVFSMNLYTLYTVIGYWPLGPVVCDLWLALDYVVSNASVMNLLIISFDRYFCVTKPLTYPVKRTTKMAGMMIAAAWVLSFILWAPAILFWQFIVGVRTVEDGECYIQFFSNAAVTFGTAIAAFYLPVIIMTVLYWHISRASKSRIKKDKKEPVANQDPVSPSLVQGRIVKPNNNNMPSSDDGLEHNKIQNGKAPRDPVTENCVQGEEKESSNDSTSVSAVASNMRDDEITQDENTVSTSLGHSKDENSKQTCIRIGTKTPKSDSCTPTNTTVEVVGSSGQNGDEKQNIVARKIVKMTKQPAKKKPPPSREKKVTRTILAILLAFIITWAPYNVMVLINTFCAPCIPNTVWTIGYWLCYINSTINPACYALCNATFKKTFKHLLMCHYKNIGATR
Nature of the assay: Functional M2-GIRK1/4 activation test: allosteric potency (EC50) and efficiency at EC20 acetylcholine. The assay is classed as cell-based. The conditions noted are these: CHO-DUKX-M2-GIRK cells; for pEC50: voltage-sensitive dye, acetylcholine at EC20, in some cases mean of two or more determinations; for Emax: boosting of the acetylcholine effect at EC20 acetylcholine concentration. The gist of the method: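 CHO-DUKX cells stably expressing human M2 and GIRK1/4; membrane potential tracked with voltage-sensitive dye at room temperature. Compound added 50 s before acetylcholine at its EC20, then hyperpolarization read 60 s. EC50 (allosteric potency) and efficiency (boost of EC20 ACh effect) from 4-parameter Hill fit.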

The target of assay [2] is T1, human M2 receptor. Nature of the assay: Functional M2-GIRK1/4 activation test: positive cooperativity (α factor), shift of acetylcholine dose-response curve. The assay is classed as cell-based. The conditions noted are these: Allosteric EC50 shift of acetylcholine 8-point dose-response curve; CHO-DUKX-M2-GIRK cells; α>1 = positive cooperativity. The gist of the method: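 CHO-DUKX cells stably expressing human M2 and GIRK1/4, loaded with voltage-sensitive dye at room temperature; hyperpolarization followed by fluorescence. Each test-substance concentration, added first, combined with an 8-point acetylcholine dose-response; shift of the acetylcholine curve analysed by allosteric EC50 shift model to give cooperativity factor α.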

pEC50: −log10 of the molar value.

In the case of `CCC(C)(C)NC(=O)c1cn(-c2c(F)cc(F)cc2F)c2nc(N3C[C@@H](O)[C@H](O)C3)c(F)cc2c1=O` [Example 89, 7-[(3R,4R)-3,4-dihydroxypyrrolidin-1-yl]-6-fluoro-N-(2-methylbutan-2-yl)-4-oxo-1-(2,4,6-tri-fluorophenyl)-1,4-dihydro-1,8-naphthyridine-3-carboxamide], at human M2 receptor [1], the pEC50 (as a rule, the EC50 on a negative log10 scale, so that one unit is a factor of ten) is 8.32 and the Emax (in general, the greatest response seen or fitted, relative to the assay's reference) came out at 100%. Besides, the “Cooperativity (alpha factor)” value at human M2 receptor [2] came to 44.

`CC(C)(C)NC(=O)c1cn(-c2c(F)cc(F)cc2F)c2nc(N3C[C@@H](O)[C@H](O)C3)c(F)cc2c1=O` [Example 90, N-tert-Butyl-7-[(3R,4R)-3,4-dihydroxypyrrolidin-1-yl]-6-fluoro-4-oxo-1-(2,4,6-trifluoro-phenyl)-1,4-dihydro-1,8-naphthyridine-3-carboxamide]: at human M2 receptor [1], the pEC50 was 7.73 and the maximal effect (Emax) is 95%. In addition, on human M2 receptor [2], the “Cooperativity (alpha factor)” value came to 30.

Take `CC[C@H](NC(=O)c1cn(-c2c(F)cc(F)cc2F)c2nc(N3C[C@@H](O)[C@@H](O)C3)c(F)cc2c1=O)C(F)(F)F` [Example 98, 7-[(3R,4S)-3,4-Dihydroxypyrrolidin-1-yl]-6-fluoro-4-oxo-N-[(2S)-1,1,1-trifluorobutan-2-yl]-1-(2,4,6-trifluorophenyl)-1,4-dihydro-1,8-naphthyridine-3-carboxamide]: on human M2 receptor [1], the pEC50 is 7.84 and the Emax worked out at 98%. The “Cooperativity (alpha factor)” value on human M2 receptor [2] is reported as 50.

At human M2 receptor [1], `O=C(N[C@@H](C1CC1)C(F)(F)F)c1cn(-c2c(F)cc(F)cc2F)c2nc(N3CC[C@H](O)C3)c(F)cc2c1=O` [Example 108, N-[(1S)-1-Cyclopropyl-2,2,2-trifluoroethyl]-6-fluoro-7-[(3S)-3-hydroxypyrrolidin-1-yl]-4-oxo-1-(2,4,6-trifluorophenyl)-1,4-dihydro-1,8-naphthyridine-3-carboxamide] gave a pEC50 of 8.27 and an Emax of 96%. Moreover, at human M2 receptor [2], the “Cooperativity (alpha factor)” value came out at 47.

On human M2 receptor [1], `CC[C@H](NC(=O)c1cn(-c2c(F)cc(F)cc2F)c2nc(N3CC[C@H](O)C3)c(F)cc2c1=O)C(F)(F)F` [Example 115, 6-Fluoro-7-[(3S)-3-hydroxypyrrolidin-1-yl]-4-oxo-N-[(2S)-1,1,1-trifluorobutan-2-yl]-1-(2,4,6-trifluorophenyl)-1,4-dihydro-1,8-naphthyridine-3-carboxamide] showed a negative logarithm of the EC50 (pEC50) of 8.18 and a maximal response (Emax) of 98%. In addition, the “Cooperativity (alpha factor)” value on human M2 receptor [2] was determined as 53.

At human M2 receptor [1], `O=C(NC(C(F)(F)F)C(F)(F)F)c1cn(-c2c(F)cc(F)cc2F)c2nc(N3C[C@@H](O)[C@H](O)C3)c(F)cc2c1=O` [Example 144, 7-[(3R,4R)-3,4-Dihydroxypyrrolidin-1-yl]-6-fluoro-N-(1,1,1,3,3,3-hexafluoropropan-2-yl)-4-oxo-1-(2,4,6-trifluorophenyl)-1,4-dihydro-1,8-naphthyridine-3-carboxamide] showed a negative-log EC50 (pEC50) of 8.35 and an Emax of 98%. Moreover, at human M2 receptor [2], the “Cooperativity (alpha factor)” value came out at 67.

At human M2 receptor [1], `O=C(NC(C(F)(F)F)C(F)(F)F)c1cn(-c2ncc(F)cc2F)c2nc(N3C[C@@H](O)[C@H](O)C3)c(F)cc2c1=O` [Example 145, 1-(3,5-Difluoropyridin-2-yl)-7-[(3R,4R)-3,4-dihydroxypyrrolidin-1-yl]-6-fluoro-N-(1,1,1,3,3,3-hexafluoropropan-2-yl)-4-oxo-1,4-dihydro-1,8-naphthyridine-3-carboxamide] had a pEC50 of 7.95 and an Emax of 100%. At human M2 receptor [2], the “Cooperativity (alpha factor)” value is listed as 86.

For `CC(C)(NC(=O)c1cn(-c2c(F)cc(F)cc2F)c2nc(N3C[C@@H](O)[C@H](O)C3)c(Br)cc2c1=O)C(F)(F)F` [Example 159, 6-Bromo-7-[(3R,4R)-3,4-dihydroxypyrrolidin-1-yl]-4-oxo-N-(1,1,1-trifluoro-2-methylpropan-2-yl)-1-(2,4,6-trifluorophenyl)-1,4-dihydro-1,8-naphthyridine-3-carboxamide], at human M2 receptor [1], the pEC50 is 8.15 and the Emax amounted to 100%. The “Cooperativity (alpha factor)” value on human M2 receptor [2] is on record as 45.

Consider `O=C(N[C@@H](C1CC1)C(F)(F)F)c1cn(-c2c(F)cc(F)cc2F)c2nc(N3C[C@@H](O)[C@H](O)C3)c(Br)cc2c1=O` [Example 160, 6-Bromo-N-[(1S)-1-cyclopropyl-2,2,2-trifluoroethyl]-7-[(3R,4R)-3,4-dihydroxypyrrolidin-1-yl]-4-oxo-1-(2,4,6-trifluorophenyl)-1,4-dihydro-1,8-naphthyridine-3-carboxamide], for which, on human M2 receptor [1], the pEC50 was 8.14 and the Emax came out at 100%. Moreover, the “Cooperativity (alpha factor)” value at human M2 receptor [2] worked out at 38.

For the compound `CC(C)(NC(=O)c1cn(-c2c(F)cc(F)cc2F)c2nc(N3C[C@@H](O)[C@H](O)C3)c(F)cc2c1=O)C(F)(F)C(F)(F)F` [Example 164, 7-[(3R,4R)-3,4-Dihydroxypyrrolidin-1-yl]-6-fluoro-4-oxo-N-(3,3,4,4,4-pentafluoro-2-methyl-butan-2-yl)-1-(2,4,6-trifluorophenyl)-1,4-dihydro-1,8-naphthyridine-3-carboxamide], on human M2 receptor [1], the pEC50 was 8.70 and the Emax came to 100%. For the same compound, the “Cooperativity (alpha factor)” value on human M2 receptor [2] is reported as 45.

At human M2 receptor [1], `CC(C)(C)C(C)(C)NC(=O)c1cn(-c2c(F)cc(F)cc2F)c2nc(N3C[C@@H](O)[C@H](O)C3)c(F)cc2c1=O` [Example 165, 7-[(3R,4R)-3,4-Dihydroxypyrrolidin-1-yl]-6-fluoro-4-oxo-1-(2,4,6-trifluorophenyl)-N-(2,3,3-trimethylbutan-2-yl)-1,4-dihydro-1,8-naphthyridine-3-carboxamide] gave a negative logarithm of the EC50 (pEC50) of 8.62 and a maximum response (Emax) of 100%. Also, the “Cooperativity (alpha factor)” value on human M2 receptor [2] turned out to be 48.

Consider `CC(C)(NC(=O)c1cn(-c2c(F)cc(F)cc2F)c2nc(N3CC(CO)(CO)C3)c(F)cc2c1=O)C(F)(F)C(F)(F)F` [Example 166, 7-[3,3-Bis(hydroxymethyl)azetidin-1-yl]-6-fluoro-4-oxo-N-(3,3,4,4,4-pentafluoro-2-methyl-butan-2-yl)-1-(2,4,6-trifluorophenyl)-1,4-dihydro-1,8-naphthyridine-3-carboxamide], for which, at human M2 receptor [1], the negative-log EC50 (pEC50) is 8.36 and the Emax amounted to 100%. For the same compound, the “Cooperativity (alpha factor)” value on human M2 receptor [2] was determined as 31.

As to `O=C(NC(C1CC1)(C1CC1)C(F)(F)F)c1cn(-c2c(F)cc(F)cc2F)c2nc(N3C[C@@H](O)[C@H](O)C3)c(F)cc2c1=O` [Example 203, N-(1,1-dicyclopropyl-2,2,2-trifluoroethyl)-7-[(3R,4R)-3,4-dihydroxypyrrolidin-1-yl]-6-fluoro-4-oxo-1-(2,4,6-trifluorophenyl)-1,4-dihydro-1,8-naphthyridine-3-carboxamide], on human M2 receptor [1], the pEC50 was 8.30 and the maximum response (Emax) is 100%. On human M2 receptor [2], the “Cooperativity (alpha factor)” value is on record as 29.

At human M2 receptor [1], `O=C(NC(C1CC1)(C1CC1)C(F)(F)C(F)(F)F)c1cn(-c2c(F)cc(F)cc2F)c2nc(N3C[C@@H](O)[C@H](O)C3)c(F)cc2c1=O` [Example 208, N-(1,1-dicyclopropyl-2,2,3,3,3-pentafluoropropyl)-7-[(3R,4R)-3,4-dihydroxypyrrolidin-1-yl]-6-fluoro-4-oxo-1-(2,4,6-trifluorophenyl)-1,4-dihydro-1,8-naphthyridine-3-carboxamide] had a pEC50 of 8.74 and a maximal effect (Emax) of 100%. Moreover, the “Cooperativity (alpha factor)” value at human M2 receptor [2] was found to be 27.

On human M2 receptor [1], `O=C(NC(C1CC1)(C1CC1)C(F)(F)F)c1cn(-c2c(F)cc(F)cc2F)c2nc(N3CC(CO)(CO)C3)c(F)cc2c1=O` [Example 210, 7-[3,3-bis(hydroxymethyl)azetidin-1-yl]-N-(1,1-dicyclopropyl-2,2,2-trifluoroethyl)-6-fluoro-4-oxo-1-(2,4,6-trifluorophenyl)-1,4-dihydro-1,8-naphthyridine-3-carboxamide] showed a negative logarithm of the EC50 (pEC50) of 8.68 and an Emax of 100%. Besides, the “Cooperativity (alpha factor)” value on human M2 receptor [2] came out at 26.

On human M2 receptor [1], `O=C(NC(C1CC1)(C1CC1)C(F)(F)C(F)(F)F)c1cn(-c2c(F)cc(F)cc2F)c2nc(N3CC(CO)(CO)C3)c(F)cc2c1=O` [Example 212, 7-[3,3-bis(hydroxymethyl)azetidin-1-yl]-N-(1,1-dicyclopropyl-2,2,3,3,3-pentafluoropropyl)-6-fluoro-4-oxo-1-(2,4,6-trifluorophenyl)-1,4-dihydro-1,8-naphthyridine-3-carboxamide] gave a pEC50 of 8.70 and an Emax of 100%. In addition, on human M2 receptor [2], the “Cooperativity (alpha factor)” value is given as 28.
